Columns and labels:
[1] = test system: B16BL6 melanoma cell line; test: MTT cell viability, combination with retinoids; assay type: cell-based
Description: The ex vivo cell viability inhibition by BA016DD537 in the presence of the retinoids 13CRA and ATRA was tested against B16BL6 melanoma cell line using the 3-(4,5 dimethylthiazol-2-yl)-2,5-diphenyl-2H-tetrazolium bromide (MTT) calorimetric assay.
(§1) About 1000 cells were seeded in a 96-well culture plate 24 hours before adding increasing concentrations of BA016DD537, from 1 pM to 100 pM, in the absence or in the presence of 10 nM of retinoids. The plate was incubated at 37° C. for 3 days. 10 μl MTT stock solution (5 mg/ml in phosphate buffer saline) was added to 90 μl of complete medium in each well, the incubation was continued for 3 h at 37° C. 100 μl of lysis buffer (20% sodium dodecyl sulfate, 10 mM HCl, 1×PBS) was added to each well, and the plate was incubated overnight. The absorbance was determined using an Integrated EIA Management System (Labsystem) at a wavelength of 570 nm.

B16BL6 melanoma cells = test: wound healing assay (cell motility); assay type: cell-based; conditions: non cytotoxic concentration
Description: (§2) Wound healing assay was performed to evaluate the effect of BA016DD537 on motility of malignant NIH 3T3 EF cells and melanoma cell lines B16F10 and B16BL6. All the cells were incubated at 37° C. in a humidified 5% CO2 atmosphere. About 100 000-200 000 cells were seeded in a 6-well culture plate and BA016DD537, at the different concentrations, was added 24 hours later. Cells were grown for 3 days to confluence about 90-95% and small scratch-wounds (about 200 μm-1 mm width) were made with a pipette tip. Cell debris were removed, then the cultures were incubated in complete medium for 10 h in the presence of the same concentration of BA016DD537. Then, the cells were fixed for 10 min in PBS containing 3.7% formaldehyde at 4° C.

NIH 3T3 EF cells = test: wound healing assay (cell motility); assay type: cell-based; conditions: 50 nM
Description: as §2

NIH 3T3 EF [2] = test: cloning assay in methylcellulose (colony formation); assay type: cell-based; conditions: read-out: Inhibition of colony formation (methylcellulose) IC50
Description: (§3) Cells were embedded in complete culture medium supplemented with 0.8% methylcellulose (Methocel MC4000, Sigma), seeded in triplicate into 35-mm dishes (Greiner Bio-one Ref 627102, Dominique Dutscher) and incubated at 37° C. in a humidified 5% CO2 atmosphere. The number of cells seeded was 1000 cells per dish. After one to three weeks, according to cell lines, macroscopic clones were counted.

NIH 3T3 EF [3] = test: MTT cell proliferation assay; assay type: cell-based; conditions: 3 days, read-out: Cytotoxic effect (MTT) IC50
Description: (§4) Growth studies were performed using the [3-(4,5 dimethylthiazol-2-yl)-2,5-diphenyl-2H-tetrazolium bromide] (Sigma) calorimetric assay.
as §1, with “1500 to 5000 cells, according to the cell line,” for “1000 cells”, “BA016DD537” for “BA016DD537, from 1 pM to 100 pM, in the absence”, “BA016FZ539.” for “in the presence of 10 nM of retinoids.”, “(10%” for “(20%”, “1% HCl 1N; pH 4.7)” for “10 mM HCl, 1×PBS)”, “nm. The proliferation rates were calculated from the OD readings using the untreated cells as 100%.” for “nm.”

[4] = test system: actin in NIH 3T3 EF extract; test: fluorescence anisotropy assay of actin dynamics in cell extract; assay type: biochemical; conditions: for k (rate constant of F-actin elongation) / Δ mA (anisotropy enhancement, steady state F-actin): malignant NIH 3T3 EF extract
Description: Actin dynamics is known to be impaired in tumor cells with a subsequent decrease of F-actin to G-actin ratio. Actin dynamics has been quantified in tumor cell extracts using the fluorescence anisotropy assay which gains access to rate constant of F-actin elongation (k) and steady state concentration of F-actin (Δ mA).
All reactions were carried out at 22° C. and fluorescence anisotropy signal was recovered at 520 nm with excitation at 490 nm in a Beacon 2000 (Panvera). Alexa 488 actin (Molecular Probes) was centrifuged at 35 000 rpm for 2 h at 4° C. to sediment residual actin polymers in a Beckman L5-50B ultracentrifuge. […] 80% of the supernatant was withdrawn; the concentration was defined through fluorescence measurements (excitation at 490 nm and signal recovering at 520 nm). The ultracentrifuged actin concentration was calculated using the non ultracentrifuged Alexa 488 actin as a standard. The supernatant was aliquoted, frozen in liquid nitrogen and stored at −80° C.
Before experiment, an aliquot of ultracentrifuged Alexa 488 actin was diluted to a concentration of […] in G buffer (5 mM Tris pH 8.1, 2 mM CaCl2, 0.2 mM DTT, 0.2 mM ATP). 3 μl of diluted Alexa 488 actin was mixed in 168 μl of G buffer and actin monomers anisotropy was measured before the addition of 4 μl of polymerisation buffer (2.5 M KCl, 50 mM MgCl2, 25 mM ATP), 5 μl of G buffer in the presence or in the absence of the chemical molecule and 20 μl cellular extract of normal NIH 3T3 cells or malignant NIH 3T3 EF cells at 2 mg/ml. The final concentration of Alexa 488 actin was 4 nM. The ratio of unlabelled to labelled actin was about 140/4 nM. Measurements were made each 10 sec for 200 sec. Actin monomers anisotropy value was subtracted, yielding the anisotropy enhancement (Δ mA). The data were fitted with the equation Y=Ymax. [1−exp(−K.X)]. The curves start at zero and ascend to Ymax that corresponds to the steady state anisotropy value (Δ mA eq), with a rate constant K. Y is anisotropy values of which monomers anisotropy is subtracted and X is the time.

SK-N-MC [5] = test: cloning assay in methylcellulose (colony formation); assay type: cell-based; conditions: read-out: Inhibition of colony formation (methylcellulose) IC50
Description: as §3

B16BL6 [6] = test: as above; assay type: cell-based; conditions: read-out: Inhibition of colony formation (methylcellulose) IC50
Description: as §3

SK-N-MC [7] = test: MTT cell proliferation assay; assay type: cell-based; conditions: 3 days, read-out: Cytotoxic effect (MTT) IC50
Description: as §4
as §1, with “1500 to 5000 cells, according to the cell line,” for “1000 cells”, “BA016DD537” for “BA016DD537, from 1 pM to 100 pM, in the absence”, “BA016FZ539.” for “in the presence of 10 nM of retinoids.”, “(10%” for “(20%”, “1% HCl 1N; pH 4.7)” for “10 mM HCl, 1×PBS)”, “nm. The proliferation rates were calculated from the OD readings using the untreated cells as 100%.” for “nm.”

B16BL6 [8] = test: MTT cell proliferation assay; assay type: cell-based; conditions: B16BL6, 3 days; read-out: Cytotoxic effect (MTT) IC50
Description: as §4
as §1, with “1500 to 5000 cells, according to the cell line,” for “1000 cells”, “BA016DD537” for “BA016DD537, from 1 pM to 100 pM, in the absence”, “BA016FZ539.” for “in the presence of 10 nM of retinoids.”, “(10%” for “(20%”, “1% HCl 1N; pH 4.7)” for “10 mM HCl, 1×PBS)”, “nm. The proliferation rates were calculated from the OD readings using the untreated cells as 100%.” for “nm.”

| SMILES | decrease of dose when used in combination with retinoids for the same results ([1]; 100 nM alone vs 1 pM in the presence of ATRA 10 nM) | tumoral cell viability inhibition (MTT) ([1]; lower doses in the presence of 10 nM retinoids (13CRA, ATRA)) | inhibition of cell motility (B16BL6 melanoma cells) | inhibition of cell migration (NIH 3T3 EF cells) | IC50 (NIH 3T3 EF [2]) [nM] | IC50 (NIH 3T3 EF [3]) [nM] | effect on actin-F elongation rate constant and actin-F steady state value ([4]; NIH 3T3 EF cytosolic fractions) | k (rate constant of F-actin elongation) ([4]; compound at 100 nM) [s⁻¹] | Δ mA (anisotropy enhancement, steady state F-actin) ([4]; compound at 100 nM) | k (rate constant of F-actin elongation) ([4]; compound at 200 nM) [s⁻¹] | Δ mA (anisotropy enhancement, steady state F-actin) ([4]; compound at 200 nM) | IC50 (SK-N-MC [5]) [nM] | IC50 (B16BL6 [6]) [nM] | IC50 (SK-N-MC [7]) [nM] | IC50 (B16BL6 [8]) [nM] |
| --- | --- | --- | --- | --- | --- | --- | --- | --- | --- | --- | --- | --- | --- | --- | --- |
| Cc1c2cc[n+](CCN3CCCCC3)cc2c(C)c2c1[nH]c1ccc(O)cc12.[Cl-] [BA016DD537, 2-(β-piperidinoethyl)-9-hydroxyellipticinium chloride] | 100 000 fold | increased tumoral cell viability inhibition | inhibition of the B16BL6 cells motility | complete inhibition | 30 | 400 | increases the actin-F elongation rate constant and the actin-F steady state value | 0.1636 | 52.38 | 0.1737 | 61.17 |  |  |  |  |
| CS(=O)(=O)[O-].Cc1c2cc[n+](CCN3CCCCC3)cc2c(C)c2c1[nH]c1ccc(O)cc12 [BA016FZ539, 2-(betapiperidino-2-ethyl)-9-hydroxyellipticinium methanesulfonate] |  |  |  |  |  |  |  |  |  |  |  | 205 | 29 | 840 | 212 |

From US20090197906A1, “REVERSION OF MALIGNANT PHENOTYPE WITH 9-HYDROXY ELLIPTICINE DERIVATIVES” (priority 2006, published 2009)
